What is called Ki is a measure of affinity in units of concentration, obtained from inhibition or displacement.

For experiment [1], the target named is T1, 5-hydroxytryptamine receptor 1A (Homo sapiens, UniProt P08908).
T1 sequence (P08908 whole entry): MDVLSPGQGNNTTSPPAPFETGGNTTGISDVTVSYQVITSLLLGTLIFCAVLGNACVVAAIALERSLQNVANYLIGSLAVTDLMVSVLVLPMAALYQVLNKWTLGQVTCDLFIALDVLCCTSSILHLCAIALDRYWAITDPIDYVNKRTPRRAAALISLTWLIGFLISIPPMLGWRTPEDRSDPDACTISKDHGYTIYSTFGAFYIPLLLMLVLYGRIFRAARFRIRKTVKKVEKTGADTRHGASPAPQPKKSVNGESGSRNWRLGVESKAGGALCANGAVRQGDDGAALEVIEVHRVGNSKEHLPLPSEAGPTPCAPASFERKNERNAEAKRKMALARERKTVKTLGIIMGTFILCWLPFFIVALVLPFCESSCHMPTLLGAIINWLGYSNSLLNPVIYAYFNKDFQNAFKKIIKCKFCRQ
Description: Binding Affinity Assay. To be noted: pH 7.4; 37 °C. On the procedure:
Human-cloned 5-HT1A serotonin receptors stably expressed in HEK293-EBNA cells (Perkin-Elmer, Waltham, MA) were radiolabeled with 1.0nM [3H]-8-OH-DPAT [Fargin et al., J. Biol. Chem., 264:[…]]. Samples containing 32 μg of membrane protein, different concentrations of each compound ranging from 0.1nM to 10 μM were incubated in a final volume of 500 μL of 50mM Tris-HCl pH 7.4, 5mM MgSO4for 120 min at 37 °C. After this incubation time, samples were filtered through Whatman GF/C glass microfiber filters presoaked in polyethylenimine 0.5% for at least 30 min prior to use. The filters were washed twice with 1mL of ice-cold buffer (50mM Tris-HCl, pH 7.4). Nonspecific binding was determined in the presence of 10 μM 5-HT. The radioactivity bound to the filters was measured by liquid scintillation using the LS6500 Multi-Purpose scintillation Counter, Beckman.

Experiment [2] addresses D(2) dopamine receptor (Homo sapiens, UniProt P14416). Kind of experiment: Binding Affinity Assay. Conditions: pH 7.4; 25 °C. As for the experimental part:
The samples were incubated for 120 min at 25 °C, then the incubation was stopped by rapid filtration through Whatman GF/C glass fiber filters (presoaked in 0.5% polyethylenimine for 60 min). The filters were washed three times in 1mL of ice-cold 50mM Tris, 0.9% NaCl, pH 7.4. Nonspecific binding was determined in the presence of 10 μM haloperidol. The radioactivity bound to the filters was measured by liquid scintillation using a LS6500 Multi-Purpose scintillation Counter, Beckman.

Sequence of D(2) dopamine receptor (P14416 whole entry): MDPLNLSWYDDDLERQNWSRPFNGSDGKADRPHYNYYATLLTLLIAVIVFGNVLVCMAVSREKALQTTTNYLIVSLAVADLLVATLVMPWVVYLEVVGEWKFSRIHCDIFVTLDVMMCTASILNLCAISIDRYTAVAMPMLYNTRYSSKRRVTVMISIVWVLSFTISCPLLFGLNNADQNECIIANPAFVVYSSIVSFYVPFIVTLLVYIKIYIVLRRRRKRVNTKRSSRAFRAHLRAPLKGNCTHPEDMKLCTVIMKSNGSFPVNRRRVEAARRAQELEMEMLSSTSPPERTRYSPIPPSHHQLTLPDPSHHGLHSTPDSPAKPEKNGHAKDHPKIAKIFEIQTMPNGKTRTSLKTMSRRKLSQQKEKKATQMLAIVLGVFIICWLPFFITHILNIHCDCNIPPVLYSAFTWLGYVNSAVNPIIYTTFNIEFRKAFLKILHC

Turning to `O=c1[nH]c2cccc(N3CCN(Cc4cccc(-c5ccccc5)c4)CC3)c2o1`, in experiment [1], the affinity corresponds to a Ki of 7.19 nM.

As to `Fc1ccc(-c2cncc(CN3CCN(c4cccc5c4OCCO5)CC3)c2)cc1` [1-(2,3-dihydro-1,4-benzodioxin-5-yl)-4-[[5-(4-fluorophenyl)pyridin-3-yl]methyl]piperazine], the Ki in experiment [2] was 8.4 nM; in experiment [1], 8.64 nM.

Regarding `O=c1[nH]c2ccc(C3CCN(Cc4cccc(C5=CCCC5)c4)CC3)cc2[nH]1` [5-(1-(3-cyclopentenylbenzyl)piperidin-4-yl)-1H-benzo[d]imidazol-2(3H)-one (5e)], the Ki in experiment [2] is 8.12 nM; in experiment [1], 1.2 nM.

Take `O=c1[nH]c2ccc(C3CCN(Cc4ccc(-c5ccc(F)cc5)cc4)CC3)cc2[nH]1` [5-(1-((4'-Fluorobiphenyl-4-yl)methyl)piperidin-4-yl)-1H-benzo[d]imidazol-2(3H)-one (5b)]: the Ki in experiment [2] amounted to 34.4 nM; in experiment [1] it was 16.2 nM.

For the compound `O=c1[nH]c2ccc(C3CCN(Cc4cncc(-c5ccc(F)cc5)c4)CC3)cc2[nH]1` [5-(1-((5-(4-Fluorophenyl)pyridin-3-yl)methyl)piperidin-4-yl)-1H-benzo[d]imidazol-2(3H)-one (5d)], the inhibitory constant (Ki) came out at 24.6 nM in experiment [2] and 9.42 nM in experiment [1].

Take `O=c1[nH]c2ccc(C3CCN(Cc4cncc(C5=CCCC5)c4)CC3)cc2[nH]1` [5-(1-((5-cyclopentenylpyridin-3-yl)methyl)piperidin-4-yl)-1Hbenzo[d]imidazol-2(3H)-one (5f)]: the values for the Ki in experiment [2] and in experiment [1] were 4.26 nM and 6.3 nM, respectively.

For the compound `O=c1[nH]c2ccc(C3CCN(Cc4cncc(-c5ccccc5)c4)CC3)cc2[nH]1` [5-(1-((5-phenylpyridin-3-yl)methyl)piperidin-4-yl)-1H-benzo[d]imidazol-2(3H)-one (5c)], the Ki in experiment [2] is 18.5 nM; in experiment [1], 6.72 nM.

On to `O=c1[nH]c2ccc(C3CCN(Cc4ccc(-c5ccccc5)cc4)CC3)cc2[nH]1` [5-(1-(biphenyl-4-ylmethyl)piperidin-4-yl)-1H-benzo[d]imidazol-2(3H)-one (5a)], for which the inhibition constant (Ki) in experiment [2] is 96.2 nM; in experiment [1], 34.2 nM.

`O=c1[nH]c2ccc(N3CCN(Cc4cccc(C5=CCCC5)c4)CC3)cc2[nH]1` [5-(4-(3-cyclopentenylbenzyl)piperazin-1-yl)-1H-benzo[d]imidazol-2(3H)-one (6e)]: the figures for the inhibitory constant (Ki) in experiment [2] and in experiment [1] were 10.4 nM and 3.1 nM, respectively.

With `O=c1[nH]c2ccc(N3CCN(Cc4ccc(-c5ccc(F)cc5)cc4)CC3)cc2[nH]1` [5-(4-((4'-fluorobiphenyl-4-yl)methyl)piperazin-1-yl)-1H-benzo[d]imidazol-2(3H)-one (6b)], the values for the Ki in experiment [2] and in experiment [1] were 62.6 nM and 27.2 nM, respectively.

`O=c1[nH]c2ccc(N3CCN(Cc4cncc(-c5ccc(F)cc5)c4)CC3)cc2[nH]1` [5-(4-((5-(4-fluorophenyl)pyridin-3-yl)methyl)piperazin-1-yl)-1H-benzo[d]imidazol-2(3H)-one (6d)]: the inhibition constant (Ki) came to 82 nM in experiment [2] and 11.4 nM in experiment [1].

For `O=c1[nH]c2ccc(N3CCN(Cc4cncc(C5=CCCC5)c4)CC3)cc2[nH]1` [5-(4-((5-cyclopentenylpyridin-3-yl)methyl)piperazin-1-yl)-1H-benzo[d]imidazol-2(3H)-one (6f)], the inhibition constant Ki turned out to be 3.1 nM in experiment [2] and 1.7 nM in experiment [1].

`O=c1[nH]c2ccc(N3CCN(Cc4cncc(-c5ccccc5)c4)CC3)cc2[nH]1` [5-(4-((5-phenylpyridin-3-yl)methyl)piperazin-1-yl)-1H-benzo[d]imidazol-2(3H)-one (6c)]: the Ki in experiment [2] stood at 12.6 nM; in experiment [1] it was 5.3 nM.

`O=c1[nH]c2ccc(N3CCN(Cc4ccc(-c5ccccc5)cc4)CC3)cc2[nH]1` [5-(4-(biphenyl-4-ylmethyl)piperazin-1-yl)-1H-benzo[d]imidazol-2(3H)-one (6a)]: the inhibitory constant (Ki) in experiment [2] was 42.2 nM; in experiment [1], 46.3 nM.
